Entries after “also recorded” stand apart in the source; their conditions may differ.
Assays:
RBP4-TTR interaction [1] = biological target: T1, RBP4-TTR interaction (Homo sapiens, UniProt P02753); assay: HTRF/TR-FRET assay for retinol-dependent RBP4-TTR interaction (1 μM retinol); type: biochemical; design: human RBP4 fragment (amino acids 19-201) was expressed in the Gold(DE3)pLysS E. coli strain; made in house; host or cells: E. coli Gold(DE3)pLysS (Stratagene), pMAL-c4x vector
Excerpt: Bacterially expressed MBP-RBP4 and untagged TTR were used in this assay. For the use in the TR-FRET assay the maltose binding protein (MBP)-tagged human RBP4 fragment (amino acids 19-201) was expressed in the Gold(DE3)pLysS E. coli strain (Stratagene) using the […] vector. Following cell lysis, recombinant RBP4 was purified from the soluble fraction using the ACTA FPLC system (GE Healthcare) equipped with the 5-ml the MBP Trap HP column. Human untagged TTR was purchased from Calbiochem. Untagged TTR was labeled directly with Eu^3+ Cryptate-NHS using the HTRF Cryptate Labeling kit from CisBio following the manufacturer's recommendations. HTRF assay was performed in white low volume 384 well plates (Greiner-Bio) in a final assay volume of 16 μl per well. The reaction buffer contained 10 mM Tris-HCl pH 7.5, 1 mM DTT, 0.05% NP-40, 0.05% Prionex, 6% glycerol, and 400 mM KF. Each reaction contained 60 nM MBP-RBP4 and 2 nM TTR-Eu along with 26.7 nM of anti-MBP antibody conjugated with d2 (Cisbio). Titration of test compounds in this assay was conducted in the presence of 1 μM retinol. All reactions were assembled in the dark under dim red light and incubated overnight at +4° C. wrapped in aluminum foil. TR-FRET signal was measured in the SpectraMax M5e Multimode Plate Reader (Molecular Device). Fluorescence was excited at 337 nm and two readings per well were taken: Reading 1 for time-gated energy transfer from Eu(K) to d2 (337 nm excitation, 668 nm emission, counting delay 75 microseconds, counting window 100 microseconds) and Reading 2 for Eu(K) time-gated fluorescence (337 nm excitation, 620 nm emission, counting delay 400 microseconds, counting window 400 microseconds). The TR-FRET signal was expressed as the ratio of fluorescence intensity: Flu665/Flu620×10,000.

human RBP4 = biological target: T2, human RBP4 (Homo sapiens, UniProt P02753); assay: Scintillation proximity (SPA) RBP4 binding assay
T2 construct: Untagged human RBP4 purified from urine of tubular proteinuria patients; purchased Fitzgerald Industries International; host or cells: human urine (tubular proteinuria patients)
Experimental: Untagged human RBP4 purified from urine of tubular proteinuria patients was purchased from Fitzgerald Industries International. It was biotinylated using the EZ-Link Sulfo-NHS-LC-Biotinylation kit from Pierce following the manufacturer's recommendations. Binding experiments were performed in 96-well plates (OptiPlate, PerkinElmer) in a final assay volume of 100 μl per well in SPA buffer (1×PBS, pH 7.4, 1 mM EDTA, 0.1% BSA, 0.5% CHAPS). The reaction mix contained 10 nM ^3H-Retinol (48.7 Ci/mmol; PerkinElmer), 0.3 mg/well Streptavidin-PVT beads, 50 nM biotinylated RBP4 and a test compound. Nonspecific binding was determined in the presence of 20 μM of unlabeled retinol. The reaction mix was assembled in the dark under dim red light. The plates were sealed with clear tape (TopSeal-A: 96-well microplate, PerkinElmer), wrapped in the aluminum foil, and allowed to equilibrate 6 hours at room temperature followed by overnight incubation at +4° C. Radiocounts were measured using a TopCount NXT counter (Packard Instrument Company).

RBP4-TTR interaction [2] = biological target: T1, RBP4-TTR interaction; assay: TR-FRET (HTRF) assay for antagonists of retinol-induced RBP4-TTR interaction, agonist and antagonist mode (Example 2); type: biochemical; design: made in house; host or cells: E. coli; settings: agonist mode, dose titration
Excerpt: TR-FRET (Time-Resolved Fluorescence Resonance Energy Transfer) is an assay format that can be used in characterization of compounds affecting protein-protein interactions (31-33). […] In the presence of retinol, RBP4-TTR interaction induces FRET that can be registered as increased ratio of […] fluorescence signals. Binding of a desired RBP4 antagonist displaces retinol and induces hindrance for RBP4-TTR interaction resulting in the decreased FRET signal (FIG. 7).
The assay was developed using E. coli-expressed MBP-tagged RBP4 and commercially available TTR labeled directly with Eu3+ cryptate. In addition to MBP-RBP4 and Eu3+ (K)-TTR, a detector reagent anti-MBP-d2 was present in the mix. The assay was first optimized in the agonist mode; sensitivity and dynamic range of the assay was […] in respect to RBP4, TTR and detection reagent concentrations.

| Compound | Antagonism of RBP4-TTR interaction in vitro (in words) (RBP4-TTR interaction [1]) | IC50 (RBP4-TTR interaction [1]; in the presence of 1 μM retinol, each value one experiment, read-out: IC50 in HTRF-based retinol-dependent RBP4-TTR interaction assay) | Binding to RBP4 in vitro (in words) (human RBP4) | IC50 (human RBP4; 10 nM 3H-retinol, 50 nM biotinylated RBP4, each value one experiment, read-out: IC50 in SPA-based RBP4 binding assay) | Induction of RBP4-TTR interaction (RBP4-TTR interaction [2]) |
| --- | --- | --- | --- | --- | --- |
| O=C(O)c1cnccc1NC(=O)N1CCC(c2ccccc2C(F)(F)F)CC1 [Compound 65] | antagonize retinol-dependent RBP4-TTR interaction; also recorded: antagonize RBP4-TTR interaction in vitro at biologically significant concentrations | 199 nM | bind to RBP4 | 19.9 nM |  |
| CC1=C(/C=C/C(C)=C/C=C/C(C)=C/C(=O)Nc2ccc(O)cc2)C(C)(C)CCC1 [fenretinide, N-(4-hydroxy-phenyl)retinamide] |  |  |  |  | did not induce RBP4-TTR interaction |
